{"source": "patent US20250163006A1", "about": "“New Coolants, and Preparations Containing Same” (Symrise AG, priority 2022, published 2025)", "key": {"human TRPM8 receptor": {"molecular_target": "T1, human TRPM8 receptor (Homo sapiens, UniProt Q7Z2W7)", "T1 construct": "expressed in transfected cells; host or cells: HEK293, stably transfected, tetracycline-inducible expression", "T1 sequence (Q7Z2W7 whole entry)": "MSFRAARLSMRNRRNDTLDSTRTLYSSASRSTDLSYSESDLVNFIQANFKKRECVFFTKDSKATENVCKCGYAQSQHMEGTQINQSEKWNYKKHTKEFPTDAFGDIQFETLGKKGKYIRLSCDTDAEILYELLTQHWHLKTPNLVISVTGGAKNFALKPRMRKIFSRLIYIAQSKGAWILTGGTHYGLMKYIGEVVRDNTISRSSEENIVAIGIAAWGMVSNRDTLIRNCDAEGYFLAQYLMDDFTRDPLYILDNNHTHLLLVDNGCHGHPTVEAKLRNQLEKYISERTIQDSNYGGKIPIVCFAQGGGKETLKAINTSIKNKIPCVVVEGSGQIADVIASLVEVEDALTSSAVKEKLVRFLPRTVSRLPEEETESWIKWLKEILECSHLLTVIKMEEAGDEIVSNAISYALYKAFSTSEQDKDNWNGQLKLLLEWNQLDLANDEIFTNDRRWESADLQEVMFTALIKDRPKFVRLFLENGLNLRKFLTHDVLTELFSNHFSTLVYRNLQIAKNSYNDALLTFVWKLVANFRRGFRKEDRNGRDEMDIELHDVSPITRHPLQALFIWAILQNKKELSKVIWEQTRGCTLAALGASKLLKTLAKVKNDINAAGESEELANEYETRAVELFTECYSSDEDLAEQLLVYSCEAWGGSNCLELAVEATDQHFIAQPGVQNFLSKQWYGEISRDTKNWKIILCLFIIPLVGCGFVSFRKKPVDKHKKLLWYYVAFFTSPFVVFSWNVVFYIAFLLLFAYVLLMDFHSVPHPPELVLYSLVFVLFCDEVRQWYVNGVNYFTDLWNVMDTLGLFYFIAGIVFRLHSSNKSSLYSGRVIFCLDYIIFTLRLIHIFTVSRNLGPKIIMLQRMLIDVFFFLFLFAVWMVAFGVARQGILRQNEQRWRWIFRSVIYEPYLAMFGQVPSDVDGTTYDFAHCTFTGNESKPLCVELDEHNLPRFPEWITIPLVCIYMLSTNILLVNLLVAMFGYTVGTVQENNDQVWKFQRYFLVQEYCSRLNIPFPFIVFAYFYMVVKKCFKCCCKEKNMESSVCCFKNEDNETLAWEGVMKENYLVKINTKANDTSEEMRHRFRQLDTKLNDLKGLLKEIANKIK", "experiment": "Assay on TRPM8 modulators: Ca2+-sensitive dye (Fluo-4) fluorescence in HEK293-TRPM8 test cells", "type": "cell-based", "set-up": "relative TRPM8 activation: concentration or dose not given beside the values", "settings": "for EC50: HEK293-TRPM8 cells", "outline": "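HEK293 cells stably carrying tetracycline-inducible human TRPM8 (1 µg/ml tetracycline), loaded next day with Fluo-4 (30 min 37 °C, 30 min RT). Compounds tested in triplicate at 0.1–200 µM (≤2% DMSO) and fluorescence read at 485/520 nm. EC50 from 4- or 5-parameter logistic fits of 6–10 concentrations.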"}, "[1]": {"experiment": "Sensory tasting of cooling intensity by trained panelists, WS-3 as reference", "type": "in vivo, human", "settings": "5 ppm in 5% sugar solution, rated after one minute, scale 1 (very weak) to 9 (very strong); for Sensory evaluation: cooling intensity; for cooling intensity (sensory evaluation, score): tasted 40 seconds, n=10 to 11", "protocol": "In order to quantify the cooling effect, comparative tests are carried out using menthane-3-carboxylic acid-N-ethylamide as a reference. For these comparative tests, the skilled person replaces the compound or compounds to be used according to the invention with menthane-3-carboxylic acid-N-ethylamide (also referred to as WS-3). Then the intensities of the cooling effects of the respective compounds or active ingredients are sensory evaluated by trained panelists (n=10 to 11) as described below and compared with each other.\nThe cooling intensity was tested as follows: Test solutions with 5 ppm of the compounds according to the invention were each tasted in a 5% sugar solution as well as a corresponding solution with 30 ppm of the reference substance WS-3. […] The panelists tasted the corresponding test solutions for exactly 40 seconds, rinsing the entire mouth with the corresponding test solution and then spitting out the sample or reference solution. Following the tasting, the test subjects rated the respective cooling intensity after one minute according to a scale of 1 (very weak) to 9 (very strong)."}, "[2]": {"settings": "TRPM8 activation, 6 to 10 concentrations, logistic curve fitting, read-out: EC50 value"}}, "note": "Read-outs that look alike come from different tables or passages of the source."}
{"smiles": "CCSc1nc(-c2ccccc2)c(-c2ccccc2)o1", "note": "[Compound A-55, 2-ethylsulfanyl-4,5-diphenyl-oxazole]", "values": [{"measurement": "relative TRPM8 activation", "setting": "human TRPM8 receptor; HEK293 cells recombinantly expressing human TRPM8", "value": 1, "unit": "%"}, {"measurement": "Sensory evaluation", "setting": "[1]; Table 6", "value": 0.59}]}
{"smiles": "CC(Sc1nnc(-c2ccccc2)c(-c2ccccc2)n1)C(=O)NC1CC1", "note": "(centres unmarked) [Compound B-01, N-Cyclopropyl-2-[(5,6-diphenyl-1,2,4-triazin-3-yl)sulfanyl] propanamide]", "values": [{"measurement": "EC50", "setting": "human TRPM8 receptor; [2]", "value": "≤ 1", "unit": "µM"}, {"measurement": "EC50", "setting": "human TRPM8 receptor; Table 5, read-out: TRPM8 EC50", "value": 0.05, "unit": "µM"}, {"measurement": "EC50", "setting": "human TRPM8 receptor; Table 7, read-out: TRPM8 EC50", "value": 0.05, "unit": "µM"}, {"measurement": "cooling intensity (sensory evaluation, score)", "setting": "[1]", "value": 4.2}, {"measurement": "Sensory evaluation", "setting": "[1]; Table 5", "value": 4.2}, {"measurement": "Sensory evaluation", "setting": "[1]; Table 9", "value": 4.2}]}
{"smiles": "CNC(=O)C(C)Sc1cnc(-c2ccccc2)c(-c2ccccc2)n1", "note": "(centres unmarked) [Compound B-02, 2-(5,6-diphenylpyrazin-2-yl)sulfanyl-N-methyl-propanamide]", "values": [{"measurement": "EC50", "setting": "human TRPM8 receptor; [2]", "value": "≤ 1", "unit": "µM"}, {"measurement": "EC50", "setting": "human TRPM8 receptor; Table 5, read-out: TRPM8 EC50", "value": 0.08, "unit": "µM"}, {"measurement": "EC50", "setting": "human TRPM8 receptor; Table 7, read-out: TRPM8 EC50", "value": 0.08, "unit": "µM"}, {"measurement": "cooling intensity (sensory evaluation, score)", "setting": "[1]", "value": 4.1}, {"measurement": "Sensory evaluation", "setting": "[1]; Table 5", "value": 4.1}, {"measurement": "Sensory evaluation", "setting": "[1]; Table 9", "value": 4.1}]}
{"smiles": "O=C(CSc1nnc(-c2ccccc2)c(-c2ccccc2)n1)N1CCC1", "note": "[Compound B-06, 1-(azetidin-1-yl)-2-[(5,6-diphenyl-1,2,4-triazin-3-yl)sulfanyl]ethanone]", "values": [{"measurement": "EC50", "setting": "human TRPM8 receptor; [2]", "value": "≤ 1", "unit": "µM"}, {"measurement": "EC50", "setting": "human TRPM8 receptor; Table 5, read-out: TRPM8 EC50", "value": 0.28, "unit": "µM"}, {"measurement": "EC50", "setting": "human TRPM8 receptor; Table 7, read-out: TRPM8 EC50", "value": 0.28, "unit": "µM"}, {"measurement": "Sensory evaluation", "setting": "[1]; Table 5", "value": 3.0}, {"measurement": "Sensory evaluation", "setting": "[1]; Table 9", "value": 3.0}]}
{"smiles": "CNC(=O)C(C)Sc1nnc2c3ccccc3c3ccccc3c2n1", "note": "(centres unmarked) [Compound B-07, N-methyl-2-phenanthro[9,10-e][1,2,4]triazine-3-ylsulfanyl-propanamide]", "values": [{"measurement": "EC50", "setting": "human TRPM8 receptor; EC50 value, TRPM8 activation, 6 to 10 concentrations, logistic curve fitting", "value": "≤ 1", "unit": "µM"}, {"measurement": "EC50", "setting": "human TRPM8 receptor; TRPM8 EC50, Table 5", "value": 0.92, "unit": "µM"}, {"measurement": "EC50", "setting": "human TRPM8 receptor; TRPM8 EC50, Table 7", "value": 0.92, "unit": "µM"}, {"measurement": "Sensory evaluation", "setting": "[1]; Table 5", "value": 0.75}, {"measurement": "Sensory evaluation", "setting": "[1]; Table 9", "value": 0.75}]}
{"smiles": "CNC(=O)C(C)Sc1nnc(-c2ccccc2)c(-c2ccccc2)n1", "note": "(centres unmarked) [Compound B-11, 2-[(5,6-diphenyl-1,2,4-triazin-3-yl)sulfanyl]-N-methyl-propanamide]", "values": [{"measurement": "EC50", "setting": "human TRPM8 receptor; Table 5, read-out: TRPM8 EC50", "value": 1.43, "unit": "µM"}, {"measurement": "EC50", "setting": "human TRPM8 receptor; Table 7, read-out: TRPM8 EC50", "value": 1.43, "unit": "µM"}, {"measurement": "cooling intensity (sensory evaluation, score)", "setting": "[1]", "value": 5.3}, {"measurement": "Sensory evaluation", "setting": "[1]; Table 5", "value": 5.3}, {"measurement": "Sensory evaluation", "setting": "[1]; Table 9", "value": 5.3}]}
